# Test results reported in ChEMBL document CHEMBL1201862, “PubChem BioAssay data set” (2004).
#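 Dose response: 5 concentrations. Exposure: 48 h. Format: 96-well plates. Endpoint: linear interpolation; highest concentration if not reached. GI50: concentration for 50% inhibition of growth.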 Calls of active or inactive are those of the source. No stated cut-off is given here; in the data, active = GI50 up to about 1.1 µM and inactive = higher.
# Legend:
# Experiment in all cases: DTP human tumour cell line panel, 48 h
# SR = test system: SR
# SK-MEL-5 = test system: SK-MEL-5
# SNB-75 = test system: SNB-75
# HOP-62 = test system: HOP-62
# HT-29 = test system: HT-29
# SW-620 = test system: SW-620
# HOP-18 = test system: HOP-18
# OVCAR-3 = test system: OVCAR-3
# IGROV-1 = test system: IGROV-1
# SNB-78 = test system: SNB-78
# HL-60 = test system: HL-60
# OVCAR-8 = test system: OVCAR-8
# DLD-1 = test system: DLD-1
# HCT-116 = test system: HCT-116
# HCT-15 = test system: HCT-15
# RPMI-8226 = test system: RPMI-8226
Structure (SMILES),GI50 (SR),GI50 (SK-MEL-5),GI50 (SNB-75),GI50 (HOP-62),GI50 (HT-29),GI50 (SW-620),GI50 (HOP-18),GI50 (OVCAR-3),GI50 (IGROV-1),GI50 (SNB-78),GI50 (HL-60),GI50 (OVCAR-8),GI50 (DLD-1),GI50 (HCT-116),GI50 (HCT-15) [µM],GI50 (RPMI-8226)
C(=N\OCc1ccccc1)/c1ncccc1C1OCCO1,> 100 µM (inactive),> 100 µM (inactive),> 100 µM (inactive),> 100 µM (inactive),> 100 µM (inactive),> 100 µM (inactive),> 100 µM (inactive),> 100 µM (inactive),> 100 µM (inactive),> 100 µM (inactive),> 100 µM (inactive),> 100 µM (inactive),> 100 µM (inactive),> 100 µM (inactive),> 100,–
Cc1ccc([N+](=O)[O-])cc1NC(=O)C(=O)Cc1cc(=O)oc2cc(O)ccc12,32.4 µM (inactive),> 100 µM (inactive),> 100 µM (inactive),> 100 µM (inactive),> 100 µM (inactive),–,> 100 µM (inactive),> 100 µM (inactive),> 100 µM (inactive),> 100 µM (inactive),> 100 µM (inactive),> 100 µM (inactive),> 100 µM (inactive),24.2 µM (inactive),> 100,32.1 µM (inactive)
CCOc1cccc2nc3cccc(C(=O)NCCN(C)C)c3nc12,0.305 µM (active),1.78 µM (inactive),1.45 µM (inactive),0.469 µM (active),0.605 µM (active),0.543 µM (active),3.94 µM (inactive),1.6 µM (inactive),1.04 µM (active),1.88 µM (inactive),–,0.891 µM (active),1.05 µM (active),0.447 µM (active),1.08,0.948 µM (active)
COc1ccc(NC(=O)C2C(=O)N(c3ccc(OC)cc3)C(=O)/C2=N\N)cc1 (centres undefined),> 100 µM (inactive),> 100 µM (inactive),–,> 100 µM (inactive),> 100 µM (inactive),> 100 µM (inactive),> 100 µM (inactive),–,> 100 µM (inactive),> 100 µM (inactive),> 100 µM (inactive),> 100 µM (inactive),> 100 µM (inactive),> 100 µM (inactive),> 100,–
C/C=C(\C)c1cc(O)c(C)c2c1Oc1cc(O)c(Cl)c(C)c1C(=O)O2,23.8 µM (inactive),13.9 µM (inactive),19.6 µM (inactive),27.7 µM (inactive),19.2 µM (inactive),19.6 µM (inactive),< 0.01 µM (active),–,–,29.1 µM (inactive),36 µM (inactive),21.4 µM (inactive),17.4 µM (inactive),> 10 µM (inactive),–,–
O=c1oc2c3ccc4ccccc4c3n(CCN3CCCCC3)c2c2ccccc12,3.21 µM (inactive),40.7 µM (inactive),4.98 µM (inactive),21.3 µM (inactive),10.1 µM (inactive),18.8 µM (inactive),> 100 µM (inactive),18.5 µM (inactive),> 55.2 µM (inactive),20.9 µM (inactive),89.5 µM (inactive),19 µM (inactive),30.2 µM (inactive),31.8 µM (inactive),38.2,> 100 µM (inactive)
CC1C(=O)N(C)C2(CO)C(=O)O[C@H](C)C12O (some centres undefined),> 100 µM (inactive),> 100 µM (inactive),–,> 100 µM (inactive),> 100 µM (inactive),–,> 100 µM (inactive),> 100 µM (inactive),> 100 µM (inactive),> 100 µM (inactive),–,> 100 µM (inactive),> 100 µM (inactive),> 100 µM (inactive),> 100,> 100 µM (inactive)
CC1CC2OC(=O)C3CC(O)CC(=C23)[C@@]12C[C@@H](c1ccoc1)OC2=O (some centres undefined),> 100 µM (inactive),> 100 µM (inactive),> 100 µM (inactive),–,> 100 µM (inactive),> 100 µM (inactive),> 100 µM (inactive),> 100 µM (inactive),> 100 µM (inactive),> 100 µM (inactive),> 100 µM (inactive),> 100 µM (inactive),> 100 µM (inactive),> 100 µM (inactive),> 100,> 100 µM (inactive)
